Measurements from US20060211684A1, “Use of alpha-2 adrenergic receptor agonists” (Perlegen Sciences, Inc., priority 2005, published 2006).
Like-named read-outs stand apart in the source and are kept apart here.

Experiments:
[1] = after ingestion; cited from earlier work
[2] = cited from earlier work
[3] = cited from earlier work; remark: listed apart in the source
[4] = system: transverse aortic constricted α2C−/−mice
Protocol: This example tests whether treatment of α2C−/−knockout transgenic mice with the partial α2A agonist, clonidine, improves cardiac function and reduces ventricular hypertrophy after left ventricular pressure overload. In other words, the example tests whether clonidine-mediated activation of α2A-receptors compensates for the loss of functional α2C. The mice used in this experiment are described in more detail in Brede et al., Circulation 106, 2491-2496 (2002). […] Mice were treated with 200 μg/kg/day clonidine or vehicle for four weeks. Three mice were treated with clonidine and three with vehicle in the initial experiment.

[5] = initial experiment, 200 μg/kg/day for four weeks, three mice clonidine, three vehicle, FIG. 1
[6] = second experiment, 200 μg/kg/day for 4 weeks via osmotic minipumps, n=5 clonidine, n=6 vehicle

Structure (SMILES): Clc1cccc(Cl)c1NC1=NCCN1 [clonidine, N-(2,6-dichlorophenyl)-4,5-dihydro-1 H-imidazol-2-amine]
- onset of antihypertensive effects [1]: 30 to 60 min
- time to peak plasma concentrations ([2]; after a single oral dose): 3 to 5 h
- CNS penetration ([2]; because of lipid solubility): excellent
- time to steady state levels ([2]; dermal application): several days
- absorption from the gastrointestinal tract ([2]; in vivo): rapidly absorbed
- elimination ([2]; in vivo): excreted unchanged in the urine and metabolized by the liver
- side effects ([3]; therapeutic doses typically used (0.2-0.9 mg/day)): dryness of the mouth, dizziness, sedation, and constipation
- toxic effects ([3]; toxic doses, children and adults): serious cardiopulmonary instability and central nervous system depression
- hypertrophy ([4]; FIGS. 1 and 2): prevents and reduces
- left ventricular systolic pressures ([4]; FIGS. 1 and 2): slightly reduced
- ventricular contractility ([4]; FIGS. 1 and 2): maintained
- contractility of the heart [4, 5]: did not effect
- left ventricular systolic pressure [4, 5]: reduced
- ventricular hypertrophy [4, 5]: reduced
- contractility of the heart [4, 6]: did not effect
- left ventricular systolic pressure [4, 6]: reduced
- ventricular hypertrophy [4, 6]: reduced
